# Data taken from patent US5795882A, “Method of treating prostatic diseases using delayed and/or sustained release vitamin D formulations” (Bone Care International, Inc., priority 1996, dated 1998).
# Tests used:
# prostate VDR = target: T1, prostate VDR (Homo sapiens, UniProt P11473); experiment: Prostate cell VDR binding; settings: 0.01-100 nM versus 1 nM 3H-1α,25-(OH)2 D3, 16-20 hrs, 4° C.
# T1 sequence (P11473 1-427): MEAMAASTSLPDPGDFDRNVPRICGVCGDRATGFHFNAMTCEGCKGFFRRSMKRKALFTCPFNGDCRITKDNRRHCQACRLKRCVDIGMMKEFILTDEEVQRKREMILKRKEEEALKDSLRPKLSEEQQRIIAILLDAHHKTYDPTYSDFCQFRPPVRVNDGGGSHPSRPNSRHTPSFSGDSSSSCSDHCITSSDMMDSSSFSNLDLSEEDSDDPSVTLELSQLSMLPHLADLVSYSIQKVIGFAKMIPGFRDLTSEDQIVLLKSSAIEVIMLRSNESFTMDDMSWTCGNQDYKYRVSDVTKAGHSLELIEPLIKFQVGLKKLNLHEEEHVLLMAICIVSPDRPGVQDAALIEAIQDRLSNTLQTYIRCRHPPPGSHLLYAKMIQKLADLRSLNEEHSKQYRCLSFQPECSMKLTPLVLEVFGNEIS
# Protocol: Prostate-derived cell lines are cultured to near confluence, washed and harvested by scraping. Cells are washed by centrifugation, and the cell pellet resuspended in a buffered salt solution containing protease inhibitors. The cells are disrupted by sonication while cooling on ice. The supernatant obtained from centrifuging the disrupted cells at 207,000×g for 35 min at 4° C. is assayed for binding. 200 μL of soluble extract, (1-2 mg protein/ml supernatant) is incubated with a 1 nM ^3 H-1α,25-(OH)2 D3 and increasing concentrations of 1α,24-(OH)2 -D2 (0.01-100 nM) for 16-20 hrs at 4° C. Bound and free hormones are separated with hydroxylapatite using standard procedures. Specific binding is calculated by subtracting nonspecific binding obtained in the presence of a 250-fold excess of nonradioactive 1α,25-(OH)2 D3 from the total binding measured.
# The procedure of Example 16 is repeated using the active vitamin D analogue 1α,24-dihydroxyvitamin D4, and the specific binding is determined.
# The procedure of Example 16 is repeated using the active vitamin D analogue 1α,25-dihydroxyvitamin D4, and the specific binding is determined.
# LNCaP [1] = experiment: Inhibition of prostate cell proliferation, LNCaP; format: cell-based, human; settings: 10^-11 to 10^-7 M, 6-7 days
# Protocol: (§1) The cell lines, LNCaP and PC-3, which are derived from human prostate adenocarcinoma, are seeded in six-well tissue culture plates at a density of about 50,000 cells/plate. After the cells have attached and stabilized, about 2-3 days, the medium is replenished with medium containing vehicle or the active vitamin D analogue, 1α,24-(OH)2 D2, at concentrations from 10^-11 to 10^-7 M. Medium containing test analogue or vehicle is replaced every three days. After 6-7 days, the medium is removed, and the cells are rinsed, precipitated with cold 5% trichloroacetic acid, and washed with cold ethanol. The cells are solubilized with 0.2N sodium hydroxide, and the amount of DNA determined by standard procedures.
# (§2) The procedure of Example 19 is repeated using the active vitamin D analogue 1α,24-(OH)2 D4, and the cell number is determined.
# (§3) The procedure of Example 19 is repeated using the active vitamin D analogue 1α,25-(OH)2 D4, and the cell number is determined.
# PC-3 = experiment: Inhibition of prostate cell proliferation, PC-3; format: cell-based, human; settings: PC-3, 10^-11 to 10^-7 M, 6-7 days
# Protocol: as §1, §2, §3
# LNCaP [2] = experiment: Stimulation of prostate cell differentiation (PSA), LNCaP; format: cell-based, human; settings: 10^-11 to 10^-7 M, 6-7 days
# Protocol: Using the techniques of Skowronski et al., 132 Endocrinology (1993) 1952-1960 and 136 Endocrinology (1995) 20-26, both of which are incorporated herein by reference, cells of the cell line, LNCaP, which is derived from a human metastatic prostate adenocarcinoma and known to express PSA, are seeded in six-well tissue culture plates at a density of about 50,000 cells/plate. After the cells have attached and stabilized, about 2-3 days, the medium is replenished with medium containing vehicle or the active vitamin D analogue, 1α,24-(OH)2 D2, at concentrations from 10^-11 to 10^-7 M. After 6-7 days, the medium is removed and stored at -20° C. for prostate specific antigen (PSA) analysis.
# The cells are rinsed, precipitated, and the amount of DNA determined by standard procedures. The cells are resuspended, and the cell number determined. PSA is measured by standard known methods.
# The procedure of Example 22 is repeated except the active vitamin D analogue is 1α,24-(OH)2 D4.
# The procedure of Example 22 is repeated except the active vitamin D analogue is 1α,25-(OH)2 D4.
# [3] = In vitro thermal conversion of 1α-hydroxyprevitamin D to 1α-hydroxyvitamin D; format: physicochemical; settings: in ethanol, 37° C.
# Protocol: A series of experiments were conducted which address the in vitro conversion of previtamin to vitamin for three 1α-hydroxyprevitamin D's: 1α-hydroxyprevitamin D2, 1α,24-dihydroxyprevitamin D2 and 1α-hydroxyprevitamin D3. Each 1α-hydroxyprevitamin D was dissolved in ethanol, incubated at 37° C. in a water bath, and samples taken at two-hour intervals. An analytical HPLC separation was performed on each sample to quantify the thermal conversion of the previtamin to the vitamin form. The data collected were normalized to account for the presence of any vitamin form in the initial formulation (≤10%). The results are presented in FIG. 1 which is a plot of % previtamin versus time in hours. Linear regression lines were generated for each previtamin.
# [4] = Oral bioavailability of 1α,24-(OH)2 preD2 in normal rats (Example 2); format: in vivo, rat
# Protocol: In this experiment, normal rats maintained on a normal diet were assigned randomly to treatment and control groups. The rats were orally administered single doses of 1α,24-(OH)2 preD2 in a fractionated coconut oil (FCO) (1.5 μg, which was approximately 7.5 μg/kg). The control group received only the vehicle. For both groups, blood was obtained at 6 hours postdosing and analyzed for serum levels of the vitamin form, 1α,24-dihydroxyvitamin D2.
# Vitamin D Receptor = target: T2, Vitamin D Receptor (Homo sapiens, UniProt P11473); experiment: VDR competitive binding assay (Examples 6-8); settings: in words; Examples 7 and 8 versus the vitamin form
# T2 sequence (P11473 1-427): T1 sequence (P11473 1-427)
# [5] = system: advanced androgen-independent prostate cancer; experiment: Clinical study in advanced androgen-independent prostate cancer; format: in vivo, human; settings: for progression of metastatic disease (CAT scans, x-rays, bone scans): two years
# Source text: Patients with advanced androgen-independent prostate cancer participate in an open-labeled study of 1α,24-(OH)2 preD2. […] On admission to the study , patients begin a course of therapy with oral 1α,24-(OH)2 preD2 lasting 26 weeks, while discontinuing any previous use of calcium supplements, vitamin D supplements, and vitamin D hormone replacement therapies. During treatment, the patients are monitored at regular intervals for: (1) hypercalcemia, hyperphosphatemia, hypercalciuria, hyperphosphaturia and other toxicity; (2) evidence of changes in the progression of metastatic disease; and (3) compliance with the prescribed test drug dosage.
# The study is conducted in two phases. During the first phase, the maximal tolerated dosage (MTD) of daily oral 1α,24-(OH)2 preD2 is determined by administering progressively higher dosages to successive groups of patients. All doses are administered in the morning before breakfast. The first group of patients is treated with 25 μg of 1α,24-(OH)2 preD2. Subsequent groups of patients are treated with 50, 75 and 100 μg/day. Dosing is continued uninterrupted for the duration of the study unless serum calcium exceeds 11.6 mg/dL or other toxicity of grade 3 or 4 is observed, in which case dosing is held in abeyance until resolution of the observed toxic effect(s) and then resumed at a level which has been decreased by 10.0 μg.
# During the second phase, patients are treated with 1α,24-(OH)2 preD2 for 24 months at 0.5 and 1.0 times the MTD.
# The study of Example 25 is repeated for the active vitamin D compound, 1α,25-(OH)2 D2 in DSR form.
# [6] = Comparison of oral bioavailability in rachitic rats (Example 5); format: in vivo, rat; settings: rat, in vivo, 0.0015 mg/kg, 12 h after single oral dose 0.255 μg (approximately 1.5 μg/kg) in fractionated coconut oil, n=6, ± SD, ** p < 0.01 relative to 1α,25(OH)2 D3, read-out: Serum 1α,25-(OH)2 D3
# Protocol: Three-week-old rats were maintained on a vitamin D-deficient diet containing normal levels of calcium and phosphorus for 3-6 weeks until marked hypocalcemia was observed. […] A control group received only the vehicle. For all treatment groups, blood was obtained at 12 hours postdosing, and analyzed for serum levels of the vitamin form.
# leukemia cells = settings: by inducing differentiation to nonmalignant macrophages; cited from earlier work
# [7] = in vivo; cited from earlier work
# malignant cells = settings: cited from earlier work
# [8] = system: prostate cancer cell lines; settings: cited from earlier work
compound,measurement,setting,value
"C=C1/C(=C\C=C2/CCC[C@]3(C)[C@@H]([C@H](C)/C=C/C(C)(O)C(C)C)CC[C@@H]23)C[C@@H](O)C[C@@H]1O (stereo partly drawn) [1α,24-(OH)2 D2, 1α,24-dihydroxyvitamin D2]",affinity for prostate VDR,prostate VDR,strong affinity for prostate VDR
same,number of cells versus control cultures,LNCaP [1],significantly fewer cells than the control cultures
same,number of cells versus control cultures,PC-3,significantly fewer cells than the control cultures
same,PSA (mass of PSA/cell) versus control cultures,LNCaP [2],significantly more PSA than control cultures
"C=C1/C(=C\C=C2/CCC[C@]3(C)[C@@H]([C@H](C)CCC(C)(O)C(C)C)CC[C@@H]23)C[C@@H](O)C[C@@H]1O (stereo partly drawn) [1α,24-(OH)2 D4, 1α,24-dihydroxyvitamin D4]",affinity for prostate VDR,prostate VDR,strong affinity for prostate VDR
same,number of cells versus control cultures,LNCaP [1],significantly fewer cells than the control cultures
same,number of cells versus control cultures,PC-3,significantly fewer cells than the control cultures
same,PSA (mass of PSA/cell) versus control cultures,LNCaP [2],significantly more PSA than control cultures
"CC1=C(/C=C\C2=CCC[C@]3(C)[C@@H]([C@H](C)/C=C/C(C)(O)C(C)C)CC[C@@H]23)C[C@@H](O)C[C@@H]1O (stereo partly drawn) [1α,24-(OH)2 preD2, 1α,24-dihydroxyprevitamin D2]",half-life,[3],12.2 h
same,"oral bioavailability (increased circulating 1α,24-(OH)2 D2)",[4],bioavailable
same,VDR binding affinity,Vitamin D Receptor,substantially less affinity for the receptor than does its vitamin form
same,bone pain associated with metastatic disease,[5]; patients treated with the MTD for at least six months,significantly diminished
same,"circulating levels of 1α,25-(OH)2 D3","[5]; patients, daily oral","suppressed, often to undetectable levels"
same,"levels of circulating 1α,24-(OH)2 D2 versus dosage","[5]; patients, daily oral",increase proportionately with the dosage administered
same,serum and urine calcium,"[5]; patients, daily oral",elevated in a dose responsive manner
same,maximal tolerated dosage (MTD),"[5]; patients, daily oral, first phase",above 20.0 μg/day
same,"progression of metastatic disease (CAT scans, x-rays, bone scans)",[5]; higher dosage (1.0 times the MTD),partial or complete remission
same,"progression of metastatic disease (CAT scans, x-rays, bone scans)",[5]; lower dosage (0.5 times the MTD),stable disease or partial remission
"CC1=C(/C=C\C2=CCC[C@]3(C)[C@@H]([C@H](C)CCC(C)(O)C(C)C)CC[C@@H]23)C[C@@H](O)C[C@@H]1O (stereo partly drawn) [1α,24-(OH)2 preD4, 1α,24-dihydroxyprevitamin D4]",VDR binding affinity,Vitamin D Receptor,substantially less affinity for the receptor than does its vitamin form
"C=C1/C(=C\C=C2/CCC[C@]3(C)[C@@H]([C@H](C)CCCC(C)(C)O)CC[C@@H]23)C[C@@H](O)C[C@@H]1O [1α,25-(OH)2 D3, 1α,25-dihydroxyvitamin D3]",concentration at 12 h,[6],0.327 ± 0.192 ng/mL
same,antileukemic activity,leukemia cells,potent antileukemic activity
same,risk of hypercalcemia limiting clinical use as anti-cancer agent,[7],"precluded, or severely limited, by the risk of hypercalcemia"
same,growth and differentiation of malignant cells,malignant cells,regulate growth and promote the differentiation of many malignant cells
same,antiproliferative and differentiating actions,[8],Antiproliferative and differentiating actions
"C=C1/C(=C\C=C2/CCC[C@]3(C)[C@@H]([C@H](C)CC[C@H](C)C(C)(C)O)CC[C@@H]23)C[C@@H](O)C[C@@H]1O [1α,25-(OH)2 D4, 1α,25-dihydroxyvitamin D4]",affinity for prostate VDR,prostate VDR,strong affinity for prostate VDR
same,number of cells versus control cultures,LNCaP [1],significantly fewer cells than the control cultures
same,number of cells versus control cultures,PC-3,significantly fewer cells than the control cultures
same,PSA (mass of PSA/cell) versus control cultures,LNCaP [2],significantly more PSA than control cultures
"C=C1/C(=C\C=C2/CCC[C@]3(C)[C@@H]([C@H](C)CCCC(C)C)CC[C@@H]23)C[C@@H](O)C[C@@H]1O [1α-(OH)D3, 1α-hydroxyvitamin D3]",antileukemic activity,leukemia cells,potent antileukemic activity
